From patent US9056835B2, “LPA2 receptor-specific benzoic acid derivatives” (University of Tennessee Research Foundation, priority 2012, dated 2015)

Columns and labels:
P2Y10 = P2Y10 (Homo sapiens, UniProt O00398); assay: LPA receptor-mediated Ca2+ mobilization assay, P2Y10; type: cell-based; details: for inhibition of P2Y10 Ca2+ response: 10 μM, ~EC75 LPA 18:1; for P2Y10 Imax (%): inhibition by 10 μM compound of ~EC75 LPA 18:1 Ca2+ response; for EC50: agonist, Ca2+ mobilization
Procedure: Similarity searches were performed separately using each fingerprint to quantitate similarity. Hits meeting the 80% similarity threshold from each search were ranked based on the Tanimoto coefficient measure of similarity to a target molecule NSC12404, and the top 75 unique hits from each fingerprint search were selected for further analysis. The 225 compounds selected for further analysis were clustered based on Tanimoto coefficients calculated using Molecular ACCess System-key fingerprints (MACCS keys) and evaluated using the diversity subset function implemented in MOE. This selected a diverse subset of 27 compounds for biological evaluation by choosing the middle compounds in each cluster. These 27 compounds were tested in Ca^2+ mobilization assays at a concentration of 10 μM using stable cell lines individually expressing LPA2 and also in vector-transfected control cells. Hits activating LPA2 were further tested using cells expressing the other established and putative LPA GPCRs. Experimental testing of the selected compounds identified the three new selective LPA2 agonists: GRI977143, H2L5547924, and H2L5828102. […] They arbitrarily selected GRI977143 for further characterization in cell-based assays.
J Biol Chem (2009) 284(25): 17304-17319). […] The cells were loaded with Fura-2-acetoxymethyl esther (Fura-2/AM) in Krebs buffer containing 0.01% pluronic acid for 30 min and rinsed with Krebs buffer before measuring Ca^2+ mobilization. The ratio of peak emissions at 510 nm after 2 min of ligand addition was determined for excitation wavelengths of 340 nm/380 nm. All samples were run in quadruplicate. […] The half maximally effective concentration (EC50), and inhibitory constant (Ki) values were calculated by fitting a sigmoid function to dose-response data points using KaleidaGraph software (version 4.1, Synergy Software; […]).
Mouse embryonic fibroblast (MEF) cells were isolated from E13.5 LPA1&2 double knockout (DKO) embryos. MEFs were transduced with empty vector or LPA2-containing lentiviruses and selected with 1.5 μg/ml puromycin. Cells were maintained in Dulbecco's modified Eagle medium (DMEM) supplemented with 10% (V/V) fetal bovine serum (FBS), 2 mM L-glutamine, 100 U/mL penicillin, and 100 μg/mL streptomycin. Serum-free medium contained 0.1% (W/V) BSA in DMEM. The rat intestinal epithelial cell line 6 (IEC-6) was obtained from the American Type Culture Collection (Rockville, Md.) at passage 13; passages 16-21 were used in all experiments. IEC-6 cells were maintained in a humidified 37° C. incubator in an atmosphere of 90% air and 10% CO2. Growth medium consisted of DMEM supplemented with 5% heat inactivated FBS, 10 μg/mL insulin, and 50 μg/mL gentamycin. The composition of the serum-starvation medium was the same as that of the full growth medium except that it contained no FBS. The McArdle rat hepatoma cell line (RH7777) stably expressing LPA2 receptors was a gift from Dr. Fumikazu Okajima (Gunma University, Maebashi, Japan). RH7777 cells stably expressing LPA1 or LPA3 receptors were generated in-house and had been characterized earlier. Wild type and LPA receptor (LPAR) stably transfected RH7777 cells were grown in DMEM supplemented with 10% FBS and 2 mM L-glutamine in the presence of 250 μg/ml G418. Chinese hamster ovary (CHO) cells stably expressing either vector or LPA4 receptor were a kind gift from Dr. Takao Shimizu (Tokyo University; Tokyo, Japan). Cells were cultured in Ham's F12 medium containing 10% FBS, 2 mM L-glutamine, and 350 μg/ml G418. Rat neuroblastoma cells (B103) were transduced with the lentivirus harboring wild type of FLAG-LPA5 and selected with puromycin to establish the stable cell lines. The stable cells were maintained in DMEM supplemented with 10% FBS and 0.4 μg/ml puromycin. GPR87- and P2Y10-expressing CHO cells and vector-transfected control cells were a gift from Dr. Norihisha Fujita (Ritsumeikan University; Shiga, Japan). […]

[1] = test system: vector- and LPA2-transduced MEF cells; assay: Adriamycin-induced apoptosis, caspase activity assay; type: cell-based, mouse; details: for decrease in caspase-8 activation / decrease in caspase 9 activation: GRI977143 10 μM; for protection against caspase 3 and 7 activation: GRI977143 above 3 μM; for inhibition of caspase 3/7 activation: 10 μM
Procedure: Experiments were performed on vector- and LPA2-transduced MEF cells. To measure caspase 3, 7, 8, or 9 activity and DNA fragmentation, cells were plated in 48-well plates (2×10^4 cells/well). To detect PARP-1 cleavage and Bax translocation, 1.5×10^6 cells were plated in 10-cm dishes and cultured overnight in full growth medium. The next morning, the growth medium was replaced by serum-starvation medium and cells were pretreated for 1 h with LPA (1-10 μM), OTP (1-10 μM), GRI977143 (1-10 μM), or vehicle. Caspase activity, DNA fragmentation, PARP-1 cleavage, and Bax translocation were measured 5 h after incubation with 1.7 μM Adriamycin or 24 h after serum withdrawal.
Caspase-Glow® 3/7, Caspase-Glow® 8 and Caspase-Glow® 9 reagents were purchased from Promega (Madison, Wis.) and used according to the manufacturer's instructions. Briefly, cells were lysed by adding 50 μl of lysis reagent per well, followed by shaking for 30 min at room temperature. […] lysate were transferred to a 96-well white-wall plate, and luminescence was measured using a BioTek® (Winooski, Vt.) plate reader.

[2] = LPA2-transduced MEF, LPA and OTP 1 μM
[3] = vector-transduced MEF, LPA and OTP 1 μM

Chain of P2Y10 (O00398 whole entry): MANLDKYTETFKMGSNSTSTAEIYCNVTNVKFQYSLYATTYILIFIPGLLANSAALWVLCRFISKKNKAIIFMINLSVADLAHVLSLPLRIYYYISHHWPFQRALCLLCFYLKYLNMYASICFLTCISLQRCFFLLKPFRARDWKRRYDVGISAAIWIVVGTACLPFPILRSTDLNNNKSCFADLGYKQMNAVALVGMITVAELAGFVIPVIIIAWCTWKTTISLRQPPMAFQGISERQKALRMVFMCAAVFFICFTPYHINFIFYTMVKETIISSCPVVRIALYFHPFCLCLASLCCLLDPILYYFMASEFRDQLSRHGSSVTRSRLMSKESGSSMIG

Row | Compound | inhibition of P2Y10 Ca2+ response (P2Y10) | P2Y10 Imax (%) (P2Y10) | EC50 (P2Y10) [µM] | decrease in caspase-8 activation [1, 2] [%] | decrease in caspase 9 activation ([1]; LPA2-transduced MEF, OTP 1 μM) [%] | protection against caspase 3 and 7 activation ([1]; LPA2-transduced MEF) | inhibition of caspase 3/7 activation ([1]; vector-transduced MEF) | decrease in caspase 9 activation [1, 3] | decrease in caspase 8 activation [1, 3] [%]
1 | O=C(O)c1cc(Cl)c(Cl)cc1C(=O)Nc1ccc2c(c1)C(=O)c1ccccc1-2 [Compound H2L5547924] | partially inhibited | 34 | – | – | – | – | – | – | –
2 | O=C(O)c1ccccc1C(=O)Nc1ccc2c(c1)C(=O)c1ccccc1C2=O [Compound H2L5828102] | partially inhibited | 39 | – | – | – | – | – | – | –
3 | O=C(O)c1ccccc1SCCCN1C(=O)c2cccc3cccc(c23)C1=O [GRI977143] | – | – | > 10 | 41±5 | 46±4 | significant protection | did not attenuate | did not affect | –
4 | CCCCCCCC/C=C\CCCCCCCC(=O)OC[C@@H](O)COP(=O)(O)O [LPA 18:1, Lysophosphatidic acid (18:1)] | – | – | 0.029 | 36±1 | – | protected | 26±1% | – | 12±2
5 | O=C(O)c1ccccc1C(=O)Nc1ccc2c(c1)C(=O)c1ccccc1-2 [NSC12404] | – | – | > 10 | – | – | – | – | – | –
6 | octadecenyl thiophosphate [OTP] | – | – | – | 33±2 | 38±1 | protected | did not attenuate | – | 15±5
